Source: publication PMC4167698, “Fatty Acid Esters of Phloridzin Induce Apoptosis of Human Liver Cancer Cells through Altered Gene Expression” (PLoS ONE, 2014)

Key:
[1] = tested on: HepG2 cells; experiment: MTS cell proliferation assay, HepG2; assay type: cell-based, human; conditions: for EC50: MTS
Experimental: (§1) Cell viability was determined by using the MTS assay. In brief, HepG2 cells (5×10^3 cells/100 µL/well), MDA-MB-231 (5×10^3 cells/100 µL/well), THP-1 (25×10^3/100 µL/well), normal human and rat hepatocytes (1×10^4 cells/100 µL/well) were plated in triplicate, in a 96 well sterile flat bottom tissue culture plates. […] Thereby, cells were exposed to various concentrations (0.1, 1, 10, 25, 50, 75, 100 µM) of each treatment. Controls consist of cells with media containing DMSO (<0.5%), test blank wells contained the test compound in media with no cells and blank wells contained media with no cells. After additional 3, 6, 12, 18 or 24 h, 20 µL of the MTS reagent in combination with the electron coupling agent, phenazine methosulfate were added to the wells and cells were incubated in a humidified incubator for 3 h. Absorbance at 490 nm (OD490) was measured by using a Flurostar Optima microplate reader (BMG Labtech, Cary, NC, USA) to obtain the number of viable cells relative to the control population. Percentage of viability of the test compound treated cells are expressed as percentage compared to control (<0.5% DMSO). […] The selective index (SI) of the fatty acid esters of phloridzin is defined as the ratio of cytotoxicity (EC50 values) on normal HP-F cells to solid cancer HepG2, MDA-MB-231 cells (SI = EC50 on HP-F cells/EC50 on solid cancer cells). Samples with SI values greater than three were considered to have high selectivity towards cancer cells.

[2] = tested on: HepG2 cells; experiment: Mitochondrial membrane potential (JC-1); assay type: cell-based, human; conditions: HepG2, 100 µM, 24 h
Experimental: HepG2 cells were seeded in a black walled clear bottom 96-well sterile flat bottom tissue culture plates (BD Biosciences, USA) at a density of 5×10^4 cells/well (100 µL) and incubated in a CO2 incubator for 24 h at 37°C. […] The staining solution JC-1 was prepared with PBS and 5 µM was added to each well. The cells were further incubated in a CO2 incubator at 37°C for 1 h. After washing the plate with PBS twice, the fluorescence was measured using a Fluostar Optima microplate reader (BMG Labtech) at 535 nm for JC-1 monomers and at 590 nm for JC-1 aggregates.

[3] = tested on: caspase 3 activity of HepG2 cells; experiment: Caspase-3 colorimetric activity assay; assay type: cell-based, human; conditions: HepG2, 100 µM, 24 h, compared to DMSO control
Experimental: The activity of caspase 3 enzyme was measured using caspase 3 colorimetric assay kit purchased from Sigma-Aldrich. […] Cells were lysed and the protein content of cell lysate was quantified by the BCA protein assay (Thermo Fisher Scientific Inc., Ottawa, ON, Canada). Caspase-3 activity was measured in the 200 µg of cell lysate using the caspase-specific peptide substrate, DEVD (Asp-Glu-Val-Asp), conjugated to reporter p-nitroanaline (ρ-NA) molecules.

[4] = tested on: HepG2 cells; experiment: Morphologic observation under inverted phase contrast microscope; assay type: cell-based, human; conditions: HepG2, 100 µM, 24 h
Experimental: After 24 h of treatment, the morphology of HepG2 cells was observed under an inverted phase contrast microscope (Nikon Eclipse E 100, Nikon, Mississauga, ON, Canada) and were captured at 400X magnification using Infinity digital microscopy camera (Lumenera corporation, Ottawa, ON, Canada).

[5] = molecular target: T1, human DNA topo IIα (Homo sapiens, UniProt P11388); experiment: Topoisomerase IIα catalytic activity (pHOT1 DNA relaxation); assay type: biochemical; conditions: 100 µM, 4 units enzyme, 37°C 30 min
T1 construct: purchased TopoGEN, Inc., Columbus, OH, USA
T1 sequence (P11388 whole entry): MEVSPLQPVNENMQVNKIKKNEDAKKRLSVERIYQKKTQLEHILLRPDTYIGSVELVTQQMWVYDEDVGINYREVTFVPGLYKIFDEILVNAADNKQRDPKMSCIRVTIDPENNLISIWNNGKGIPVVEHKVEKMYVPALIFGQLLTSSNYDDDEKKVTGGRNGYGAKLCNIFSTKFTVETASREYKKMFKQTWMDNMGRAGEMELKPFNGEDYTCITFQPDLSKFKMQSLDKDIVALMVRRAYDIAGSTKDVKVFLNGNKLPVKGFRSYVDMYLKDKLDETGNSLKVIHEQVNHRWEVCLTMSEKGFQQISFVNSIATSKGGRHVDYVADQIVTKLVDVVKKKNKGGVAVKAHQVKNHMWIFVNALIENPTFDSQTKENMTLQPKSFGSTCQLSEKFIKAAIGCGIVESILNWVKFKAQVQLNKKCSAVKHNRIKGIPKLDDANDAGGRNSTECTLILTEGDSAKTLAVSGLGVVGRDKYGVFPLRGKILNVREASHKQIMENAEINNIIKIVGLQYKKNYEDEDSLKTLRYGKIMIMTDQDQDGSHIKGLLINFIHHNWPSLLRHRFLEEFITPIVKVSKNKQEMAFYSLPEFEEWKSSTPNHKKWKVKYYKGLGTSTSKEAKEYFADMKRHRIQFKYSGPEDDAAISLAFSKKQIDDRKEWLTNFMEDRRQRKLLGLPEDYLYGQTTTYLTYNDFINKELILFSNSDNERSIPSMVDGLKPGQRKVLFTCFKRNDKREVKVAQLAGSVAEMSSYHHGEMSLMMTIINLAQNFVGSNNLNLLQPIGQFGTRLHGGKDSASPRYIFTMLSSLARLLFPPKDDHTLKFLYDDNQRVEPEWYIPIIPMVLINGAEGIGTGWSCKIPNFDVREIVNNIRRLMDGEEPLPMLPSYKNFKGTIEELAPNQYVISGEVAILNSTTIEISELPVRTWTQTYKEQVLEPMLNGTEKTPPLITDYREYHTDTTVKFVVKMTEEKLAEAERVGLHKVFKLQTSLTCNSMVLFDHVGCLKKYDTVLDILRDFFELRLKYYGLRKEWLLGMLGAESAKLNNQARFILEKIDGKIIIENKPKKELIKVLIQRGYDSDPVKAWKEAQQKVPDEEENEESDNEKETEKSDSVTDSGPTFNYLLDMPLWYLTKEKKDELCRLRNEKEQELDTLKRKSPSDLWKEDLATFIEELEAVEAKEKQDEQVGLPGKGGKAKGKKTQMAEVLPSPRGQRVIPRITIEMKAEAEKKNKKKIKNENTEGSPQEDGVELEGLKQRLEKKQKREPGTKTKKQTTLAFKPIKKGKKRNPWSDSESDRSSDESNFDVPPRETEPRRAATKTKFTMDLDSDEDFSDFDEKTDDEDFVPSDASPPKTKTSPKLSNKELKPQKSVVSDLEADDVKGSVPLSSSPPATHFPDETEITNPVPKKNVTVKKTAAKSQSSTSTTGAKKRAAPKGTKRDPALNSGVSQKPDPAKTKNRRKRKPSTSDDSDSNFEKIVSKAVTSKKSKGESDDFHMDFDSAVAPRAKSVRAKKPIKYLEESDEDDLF
Experimental: The topo IIα catalytic activity was monitored via electrophoresis using topoisomerase II drug screening kit (TopoGEN, Inc., Columbus, OH, USA). Briefly, 20 µL of reaction mixtures contained 0.5 M Tris-HCl, pH 8.0, 1.5 M NaCl, 100 mM MgCl2, 20 mM ATP, 300 µg BSA/mL and 5 mM dithiothreitol. Supercoiled DNA (pHOT1 DNA), supercoiled provided in the kit was determined to be ideal for this assay because it is small and easy to handle and has a large number of topo IIα recognition elements. […] The reaction was terminated by adding 2 µL of 10% sodium dodecyl sulfate (SDS) followed by digestion with 2 µL of proteinase K (50 µg/mL) at 37°C for 15 min to degrade enzyme. After adding 2 µL of loading buffer (0.25% bromophenol blue and 50% glycerol) was added to the mixture, samples were loaded onto 1% agarose gel. Electrophoresis was conducted at 66 V (2 V/cm) for 5 h in TBE buffer using Biorad Electrophoretic Gel System (Bio-Rad, Hercules, CA, USA). Supercoiled DNA (pHOT1 DNA) and relaxed DNA were included in the electrophoresis run as markers for DNA topology. Gels were then stained in 0.5 µg/mL gel red in TBE for 30 min and destained for 15 min in distilled water prior to digital image acquisition using Gel Doc 100 system (Bio-Rad, Hercules, CA, USA).
One unit of topoisomerase II activity was defined as the minimum amount of enzyme required to achieve complete relaxation of […] superhelical pHOT1 DNA in 30 min at 37°C. […] The percent of inhibition was calculated by the following formula: [drawing 1] Where Scontrol is the percent of supercoiled DNA in the control lane (without enzyme and test compounds), S0 is the percent of supercoiled DNA in the lane without test compounds and S is the percent of supercoiled DNA in the lane with test compounds and enzyme.

[6] = tested on: normal human hepatocytes (HP-F); experiment: MTS cell viability assay, normal human hepatocytes; assay type: cell-based; conditions: 24 h
Experimental: as §1

[7] = tested on: HepG2 cells; experiment: DNA fragmentation (apoptotic DNA ladder); assay type: cell-based, human; conditions: HepG2, 100 µM, 24 h, agarose gel
Experimental: HepG2 (1×10^5) cells were seeded in 24-well culture plates and were allowed to adhere overnight. […] The plates were re-incubated for another 24 h. DNA fragmentation was detected using ApoTarget Quick Apoptotic DNA Ladder Detection Kit (Invitrogen, Burlington, ON, Canada) according to the manufacturer’s protocol. The principle involves detecting the internucleosomal DNA fragments formed during apoptosis. Briefly, floating dead cells and trypsinized adherent cells were collected and centrifuged at 1,000 rpm for 10 min. After washing with diluted phosphate buffered saline, the cells were lysed with 35 µL TE lysis buffer (a kit component). To the lysate, 5 µL of Enzyme A (a kit component) was added and incubated at 37°C for 10 min. Afterwards, 5 µL of Enzyme B (a kit component) was added, gently mixed and incubated at 50°C for 30 min. The DNA was precipitated with the ammonium acetate and absolute ethanol at −20°C. After centrifugation (10 min at 12,000 rpm) and air drying, the DNA pellet was dissolved in 30 µL of DNA suspension buffer. For detecting the DNA ladder, the extracted DNA samples were run on a 1.2% agarose gel containing 0.5 µg/mL gel red in Tris-Borate-EDTA (TBE) buffer. After electrophoresis, the gel image was captured using Gel Doc 100 system (Bio-Rad, Mississauga, ON, Canada).

[8] = tested on: rat hepatocytes (RTCP10); experiment: MTS cell viability assay, rat hepatocytes; assay type: cell-based; conditions: 100 µM, 24 h
Experimental: as §1, with “Samples with SI values greater than three were considered to have high selectivity towards cancer cells.” left out

[9] = tested on: HepG2 cells; experiment: LDH release cytotoxicity assay; assay type: cell-based, human; conditions: HepG2, 100 µM, 6 h, relative to maximum release by 1% Triton X-100
Experimental: Lactate dehydrogenase (LDH) is a stable cytosolic enzyme that is released upon membrane damage in apoptotic/necrotic cells. LDH activity was measured using CytoTox 96 Non-Radioactive Cytotoxicity Assay (Promega, Madison, WI, USA), in which LDH released in culture supernatants is measured with a coupled enzymatic assay, resulting in conversion of a tetrazolium salt into a red formazan product. […] After centrifugation, the supernatant was removed to an assay plate, and the LDH released from the cells into culture medium was measured. The maximal release was obtained after treating control cells with 1% Triton X-100 for 30 min at room temperature. The apoptotic/necrotic percentage was expressed using the formula: (sample value/maximal release)×100%.

[10] = tested on: MDA-MB-231 cells; experiment: MTS cell proliferation assay, MDA-MB-231; assay type: cell-based, human; conditions: for EC50: MTS
Experimental: as §1

[11] = tested on: THP-1 cells; experiment: MTS cell proliferation assay, THP-1; assay type: cell-based, human; conditions: MTS
Experimental: as §1

Work on `CNC(=O)c1cc(Oc2ccc(NC(=O)Nc3ccc(Cl)c(C(F)(F)F)c3)cc2)ccn1` [Sorafenib, sorafenib] yielded an EC50 ([1]; Homo sapiens, HepG2, 3 h) of 67.5 ± 5.2 µM, an EC50 ([1]; Homo sapiens, HepG2, 6 h) of 46.7 ± 3.5 µM and an EC50 ([1]; Homo sapiens, HepG2, 12 h) of 17.3 ± 0.8 µM. The EC50 ([1]; Homo sapiens, HepG2, 18 h) was 13.4 ± 0.9 µM, the EC50 ([1]; Homo sapiens, HepG2, 24 h) was 10.7 ± 0.5 µM and the mitochondrial membrane potential [2] was “significant (P<0.05) reduction”. For the same molecule, the “caspase 3 activity” value [3] was “significant (P<0.001) increase”, the apoptotic morphological changes [4] was “morphological changes which are characteristic to apoptosis” and the “catalytic activity of human DNA topo IIα (pHOT DNA relaxation)” value [5] was “inhibited catalytic activity”. The EC50 ([6]; Hepatocyte) was > 100 µM and the “internucleosomal DNA fragmentation” value [7] was “clear DNA ladders”.

`CCCCCCCCCCCCCCCCCC(=O)OC[C@H]1O[C@@H](Oc2cc(O)cc(O)c2C(=O)CCc2ccc(O)cc2)[C@H](O)[C@@H](O)[C@@H]1O` [Pz-Stearic acid ester, stearic acid ester of Pz] was tested, and the “viability of rat hepatocytes” value [8] was “about 50%”.

In the case of `CC/C=C\C/C=C\C/C=C\C/C=C\C/C=C\CCCC(=O)OC[C@H]1O[C@@H](Oc2cc(O)cc(O)c2C(=O)CCc2ccc(O)cc2)[C@H](O)[C@@H](O)[C@@H]1O` [Pz-EPA ester, eicosapentaenoic acid ester (EPA) of Pz], the “SI (selective index)” value ([1]; EC50 of HP-F cells/EC50 on HepG2, 24 h) is reported as 7.4, the EC50 ([1]; HepG2, 3 h) is reported as 39.4 ± 2.8 µM and the EC50 ([1]; HepG2, 6 h) is reported as 37.8 ± 1.9 µM. The EC50 ([1]; HepG2, 12 h) was 36 ± 2.1 µM, the EC50 ([1]; HepG2, 18 h) was 33.1 ± 2.4 µM and the EC50 ([1]; HepG2, 24 h) was 26.8 ± 1.8 µM. For the same molecule, the LDH release [9] was 82.7±1.5%, the “SI (selective index)” value ([10]; EC50 of HP-F cells/EC50 on MDA-MB-231, 24 h) was 7.5 and the EC50 ([10]; MDA-MB-231, 3 h) was 37.9 ± 2.2 µM. The EC50 ([10]; MDA-MB-231, 6 h) was 33.6 ± 1.8 µM, the EC50 ([10]; MDA-MB-231, 12 h) was 32.6 ± 1.8 µM and the EC50 ([10]; MDA-MB-231, 18 h) was 31.5 ± 2.3 µM. The EC50 ([10]; MDA-MB-231, 24 h) was 26.5 ± 1.1 µM, the EC50 ([11]; THP-1, 3 h) was 27.9 ± 1.5 µM and the EC50 ([11]; THP-1, 6 h) was 19.9 ± 1.1 µM. It also gave an EC50 ([11]; THP-1, 12 h) of 17 ± 0.6 µM, an EC50 ([11]; THP-1, 18 h) of 15.8 ± 0.8 µM and an EC50 ([11]; THP-1, 24 h) of 14.8 ± 0.6 µM. The EC50 [6] was > 100 µM.
